Entries after “also recorded” stand apart in the source; their conditions may differ. Where two headings read alike, the source gives them in different places.
Key:
Format in all cases: cell-based, mouse
MuERV Env = assay: Western blot of Env maturation in donor cell lysates and EVs; conditions: donor cells 10 μM, 3 days, vs DMSO
Experimental: Cell lysates and EVs derived from Amprenavir-treated donor cell clone N2a NM-HA^agg s2E were analyzed for Env maturation by Western blot. Amprenavir-treated cell lysate and EVs lack the proteolytical mature Env transmembrane (TM) fragment p15E required for receptor binding. Cleaved products and degradation intermediates were detected by anti-MuLV virus antibody ABIN457298. Presumed bands representing Env precursor protein (gp85 and gp70), Pr15E or cleavage product (p15E) are indicated. • b., c. Aggregate induction in recipient N2a NM-GFP^sol cells cocultured with Amprenavir-pretreated N2a NM-HA^agg s2E donor cells or (c) in recipient cells exposed to EVs derived from Amprenavir-treated donors. • d. EVs from donor clone N2a NM-HA^agg s2E were incubated with increasing concentrations of anti-Env antibody mAb83A25 for 1 h and added to recipient N2a NMGFP^sol cells for 16 h. • e, g. Donor clone N2a NM-HA^agg s2E was transfected with three individual siRNAs (SEQ ID NO 14-19) against endogenous Env (e) or (SEQ ID NO 20-25) against Gag (g). […] MuERV Env and Gag protein levels were analyzed by Western blot. • l. […] Recipient N2a NM-GFP^sol cells were transfected with two siRNAs against XPR1 (SEQ ID NO 26-29), siRNA against mCat-1 (SEQ ID NO 30 and 31) or with non-silencing siRNA control. mRNA knock-down was assessed 48 h post siRNA transfection by quantitative PCR. […]

N2a NM-GFP^sol cells = conditions: for percentage of recipient cells with NM-GFP aggregates: compounds added to cocultures 1 h after co-seeding, three concentrations, 12 h
MuERV env and gag mRNA = assay: qRT-PCR of MuERV env and gag transcripts in donor clone s2E; conditions: s2E P1 donors, Aza 200 nM or Dec 100 nM, then 5 days without drug, vs DMSO
Experimental: To inhibit methyltransferases, s2E P1 donor cells were treated for three days with methyltransferase inhibitors 5-Azacytidine (Aza) 200 nM, Decitabine (Dec) 100 nM or DMSO as solvent control. Subsequently, the cells were cultured in the absence of the drugs for 5 days. Pre-treated donor cells were subsequently cocultured with recipient cells as described above to monitor aggregate induction efficiency in recipient N2a NM-GFP^sol cells. Cell lysates of donor cells were also analyzed for MuERV Env and Gag expression levels by western blot. To increase DNA methylation, the s2E donor clone (P21) was treated with methyl group donors L-methionine (L-M) 80 mM, Betaine (B) 80 mM, Choline chloride (CC) 20 mM or medium control for 6 days. MuERV Env and Gag protein levels were analyzed by western blot. Subsequently, cells were cocultured with recipient cells for 16 h. The percentage of aggregate containing recipient cells was compared to the percentage of aggregate bearing recipients cocultured with solvent-treated donors. […]
Total RNA from cell pellets or brain samples was isolated using the RNeasy Mini Kit or RNeasy Lipid Tissue Mini Kit (Qiagen). RNA concentration and quality were determined using the Agilent 2100 Bioanalyzer System. For a 20 μl reaction, 1 μg RNAs were reversely transcribed to cDNA using the iScript™ cDNA Synthesis Kit (Bio-Rad). For a 20 μl qRT-PCR reaction, 2 μl of synthesized cDNA was used as template. For qRT-PCR of murine env AA037244.2 and gag AID54952, custom designed TaqMan probes were used (Thermo Fisher Scientific). Pre-designed TaqMan probes by the company for murine pan-env, xpr1, mcat-1 and gapdh as housekeeping control and TaqMan™ Gene Expression Master Mix (Thermo Fisher Scientific) were used. qRT-PCR using TaqMan probes was performed as described in the manufacturer's instruction. For qRT-PCR analyses of HERV family members, primers were designed using the corresponding cDNA sequences (cf. SEQ ID NOs. 73-92). PowerUP SYBR™ Green Master Mix (Thermo Fisher Scientific) was mixed with different cDNAs and corresponding primers as indicated in the instruction. The fast cycling mode was used for all primers.

CC(C)CN(C[C@@H](O)[C@H](Cc1ccccc1)NC(=O)O[C@H]1CCOC1)S(=O)(=O)c1ccc(N)cc1 [Amprenavir]
Env protein maturation to TM p15E (MuERV Env): efficiently inhibited Env protein maturation to TM p15E; also recorded: inhibits maturation of endogenous MuERV proteins, including Env
percentage of recipient cells with NM-GFP aggregates (N2a NM-GFP^sol cells; vs DMSO): reduce aggregate induction; also recorded: observed only when donor cells were cotreated
percentage of recipient cells with NM-GFP aggregates (N2a NM-GFP^sol cells; vs DMSO, listed as amprenavir): reduced the percentage of recipient cells with NM-GFP aggregates
intercellular aggregate induction during coculture (N2a NM-GFP^sol cells; donor cells pre-treated with 10 μM for 3 days, coculture in the absence of drug, 16 h): significantly inhibited intercellular aggregate induction during coculture

Nc1ncn([C@H]2C[C@H](O)[C@@H](CO)O2)c(=O)n1 [Decitabine, 5-aza-2′-deoxycytidine]
NM aggregate induction in recipient cells cocultured with pretreated donors (N2a NM-GFP^sol cells; s2E P1 donors pretreated, Aza 200 nM or Dec 100 nM, vs DMSO): significantly increased NM aggregate induction in recipient cells
expression of total env and gag mRNA (MuERV env and gag mRNA): increased expression of total env and gag mRNA
expression of total env and gag mRNA (MuERV env and gag mRNA; listed as 5-aza-2′-deoxycytidine): Increased expression of MuERV env (f), gag (h) and pan-env (g) transcripts
